Test results taken from patent publication US20130078718A1, “CONVERSION OF VASCULAR ENDOTHELIAL CELLS INTO MULTIPOTENT STEM-LIKE CELLS” (PRESIDENT AND FELLOWS OF HARVARD COLLEGE, priority 2010, published 2013).
Entries after “also recorded” stand apart in the source; their conditions may differ.

Experiments:
ALK2 = molecular target: T1, ALK2 (Homo sapiens, UniProt Q04771); assay: ALK2 phosphorylation: immunoprecipitation with ALK2 antibodies, phospho-tyrosine immunoblotting; type: cell-based; conditions: 10 ng/mL, 15 minutes
T1 construct: Phosphorylation of this receptor was therefore examined in cell lysates; endogenous in cells; host or cells: primary HUVEC and HCMEC
T1 sequence (Q04771 21-509): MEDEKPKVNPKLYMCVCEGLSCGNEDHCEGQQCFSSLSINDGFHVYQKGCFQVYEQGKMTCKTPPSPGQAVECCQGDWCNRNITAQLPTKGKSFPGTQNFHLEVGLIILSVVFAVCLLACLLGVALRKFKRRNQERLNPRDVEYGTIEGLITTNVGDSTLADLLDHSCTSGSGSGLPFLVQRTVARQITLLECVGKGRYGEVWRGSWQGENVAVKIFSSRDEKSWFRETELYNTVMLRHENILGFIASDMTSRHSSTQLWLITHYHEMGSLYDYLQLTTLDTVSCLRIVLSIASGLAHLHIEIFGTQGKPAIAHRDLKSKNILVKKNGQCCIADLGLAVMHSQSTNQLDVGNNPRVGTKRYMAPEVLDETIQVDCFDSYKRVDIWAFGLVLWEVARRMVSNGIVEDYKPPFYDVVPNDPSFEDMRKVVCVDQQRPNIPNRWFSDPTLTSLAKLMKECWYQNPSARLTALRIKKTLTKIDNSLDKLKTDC
Procedure: Human umbilical vein endothelial cells (HUVEC) and human cutaneous microvascular endothelial cells (HCMEC) were provided by J. Bischoff (Children's Hospital Boston) and isolated as previously described^35. […] Cells were grown in culture using EGM-2 medium (Cambrex), containing 10% FBS and 1% Penicillin/Streptomycin, followed by human endothelial serum free medium (Gibco) 24 hours prior to all experimental conditions. Bone marrow derived mesenchymal stem cells (ScienCell Research Laboratories) were grown in mesenchymal stem cell medium (ScienCell Research Laboratories). Human corneal fibroblasts, from a stock initially provided by E. Hay (Harvard Medical School), were grown in RPMI medium, containing 10% FBS and 1% Penicillin/Streptomycin. […]
Immunoassays were performed using the following antibodies at concentrations (and using protocols) recommended by the respective manufacturers: FSP-1 (H00006275-M01; Stressgen), ALK2 (sc-5671), Phospho-tyrosine (sc-7020), VE-cadherin (sc-6458), TIE2 (sc-324, sc-9026), STRO-1 (sc-47733), CD44 (sc-71220), CD90 (sc-9163), Osteocalcin (sc-74495, sc-23790), SOX9 (sc-20095), COL2A1 (sc-59958, sc-52658), PPARγ2 (sc-22022; Santa Cruz Biotechnology), vWF (ab68545; Abcam); His (A00174; GenScript); α-SMA (A5228), β-actin (A1978; Sigma-Aldrich). […] Images were acquired using a Nikon 80i fluorescence microscope. […]

[1] = tested on: Human umbilical vein endothelial cells (HUVECs) and human cutaneous microvascular endothelial cells (HCMECs); assay: Endothelial-mesenchymal transition (EndMT) in endothelial cells: morphology, marker expression by immunoblotting, flow cytometry, real-time PCR, ELISA; type: cell-based; conditions: for FSP-1, α-SMA, and N-cadherin levels (immunoblotting) / VE-cadherin, CD31, and vWF levels (immunoblotting): 10 ng ml−1, 48 h; for EndMT-associated transcription factors Snail, Slug, ZEB-1, SIP-1, LEF-1, Twist (ELISA): 10 ng ml−1, compared to control cells; for FSP-1 and α-SMA levels (immunoblotting) / TIE-2 expression levels (immunoblotting) / VE-cadherin levels (immunoblotting) / co-staining for endothelial marker TIE2 and mesenchymal marker FSP-1 (fluorescence microscopy or flow cytometry) / expression of genes associated with EndMT (FSP-1, α-SMA, N-cadherin, fibronectin, Snail, Slug, ZEB-1, SIP-1, LEF-1, Twist), real-time quantitative PCR / cell morphology (DIC imaging): 10 ng/mL, 48 hours; for expression of genes associated with EndMT (FSP-1, α-SMA, N-cadherin, fibronectin, Snail, Slug, ZEB-1, SIP-1, LEF-1, Twist), real-time quantitative PCR: compared to control cells; for cell morphology (DIC imaging): serum free medium
Procedure: (§1) Human umbilical vein endothelial cells (HUVEC) and human cutaneous microvascular endothelial cells (HCMEC) were provided by J. Bischoff (Children's Hospital Boston) and isolated as previously described^35. […] Cells were grown in culture using EGM-2 medium (Cambrex), containing 10% FBS and 1% Penicillin/Streptomycin, followed by human endothelial serum free medium (Gibco) 24 hours prior to all experimental conditions. Bone marrow derived mesenchymal stem cells (ScienCell Research Laboratories) were grown in mesenchymal stem cell medium (ScienCell Research Laboratories). Human corneal fibroblasts, from a stock initially provided by E. Hay (Harvard Medical School), were grown in RPMI medium, containing 10% FBS and 1% Penicillin/Streptomycin. Primary human osteoblasts, chondrocytes, and adipocytes and their respective growth media were obtained from Cell Applications Inc. Recombinant TGF-β2 and BMP4 proteins (R&D Systems) were added to the serum free culture medium for all relevant experiments at a concentration of 10 ng/mL. Cells were treated for 15 minutes to assess ALK2 phosphorylation, 1 hour to measure Smad5 phosphorylation, or 48 hours to induce EndMT. All experiments for this study were performed at minimum in triplicate.
(§2) Immunoassays were performed using the following antibodies at concentrations (and using protocols) recommended by the respective manufacturers: FSP-1 (H00006275-M01; Stressgen), ALK2 (sc-5671), Phospho-tyrosine (sc-7020), VE-cadherin (sc-6458), TIE2 (sc-324, sc-9026), STRO-1 (sc-47733), CD44 (sc-71220), CD90 (sc-9163), Osteocalcin (sc-74495, sc-23790), SOX9 (sc-20095), COL2A1 (sc-59958, sc-52658), PPARγ2 (sc-22022; Santa Cruz Biotechnology), vWF (ab68545; Abcam); His (A00174; GenScript); α-SMA (A5228), β-actin (A1978; Sigma-Aldrich). Samples were run with Criterion precast SDS-PAGE Gels (Bio-Rad). HRP-conjugated IgG TrueBlot reagents (18-8814, 18-8816, 18-8817; eBioscience) were used at a dilution of 1:1000. TrueBlot IgG beads (eBioscience) were used for immunoprecipitation experiments. Alexa Fluor secondary antibodies (Invitrogen) were used at a dilution of 1:200. Images were acquired using a Nikon 80i fluorescence microscope.
(§3) Endothelial cells were stained in suspension using antibodies against TIE2, FSP-1, STRO-1, and His (described above) and the protocols provided by their respective manufacturer. Flow cytometry was performed at the Harvard Medical School, Department of Pathology flow cytometry core facility using a FACSDCalibur (BD Biosciences) cell sorter isolating 30,000 cells per sample.
(§4) RNA extractions were performed using the RNeasy Mini kit (Qiagen) and protocol. RNA samples were submitted to a core facility (Biopolymers Facility, Department of Genetics, Harvard Medical School) where real-time PCR experiments were conducted using the Syber Green PCR system (ABI) on an ABI 7500 cycler, with 40 cycles per sample. Cycling temperatures were as follows: denaturing 95° C.; annealing 60° C.; extension, 70° C. The following primers (Integrated DNA Technologies) were used: […]
(§5) Human umbilical vein endothelial cells (HUVEC) and human cutaneous microvascular endothelial cells (HCMEC) isolated as previously described (35). […] Cells were grown in culture using EGM-2 medium (Cambrex), containing 10% FBS and 1% Penicillin/Streptomycin, followed by human endothelial serum free medium (Gibco) 24 h prior to all experimental conditions.

HUVEC and HCMEC = assay: Mesenchymal stem cell marker expression in treated endothelial cells; type: cell-based, human; conditions: 10 ng/mL, 48 hours; for expression of mesenchymal stem cell genes CD10, CD13, CD44, CD73, CD90, CD120a, CD124 (real-time quantitative PCR): compared to control cells
Procedure: as §1, §2, §3, §4, §5

TGF-β2: Recombinant TGF-β2 protein (R&D Systems), ALK2 activating ligand, used at 10 ng/mL
ALK2 receptor phosphorylation (phospho-tyrosine) (ALK2): induced receptor phosphorylation | effect on EndMT (stimulation) [1]: stimulators of EndMT; also recorded: stimulate EndMT | FSP-1, α-SMA, and N-cadherin levels (immunoblotting) [1]: increased | VE-cadherin, CD31, and vWF levels (immunoblotting) [1]: decreased | EndMT-associated transcription factors Snail, Slug, ZEB-1, SIP-1, LEF-1, Twist (ELISA) [1]: much higher | FSP-1 and α-SMA levels (immunoblotting) [1]: increased | TIE-2 expression levels (immunoblotting) [1]: remained unchanged; also recorded: remain constant | VE-cadherin levels (immunoblotting) [1]: significantly decreased | co-staining for endothelial marker TIE2 and mesenchymal marker FSP-1 (fluorescence microscopy or flow cytometry) [1]: staining for both | expression of genes associated with EndMT (FSP-1, α-SMA, N-cadherin, fibronectin, Snail, Slug, ZEB-1, SIP-1, LEF-1, Twist), real-time quantitative PCR [1]: much higher | cell morphology (DIC imaging) [1]: distinct change from cobblestone-like endothelial cell morphology to fibroblast-like morphology | VE-cadherin, FSP-1, CD44, CD90 expression in clonal populations (multiplex ELISA) ([1]; three clonal populations of HUVEC and HCMEC, 48 h): decreased expression of VE-cadherin and increased expression of FSP-1, CD44, and CD90 | STRO-1 and other mesenchymal stem cell markers (immunoblotting) (HUVEC and HCMEC): strongly expressed | co-expression of TIE2 and mesenchymal stem cell marker STRO-1 (immunofluorescence microscopy or flow cytometry) (HUVEC and HCMEC): strong co-expression; also recorded: massive co-expression | expression of mesenchymal stem cell genes CD10, CD13, CD44, CD73, CD90, CD120a, CD124 (real-time quantitative PCR) (HUVEC and HCMEC): greatly increased

BMP4: Recombinant BMP4 protein (R&D Systems), ALK2 activating ligand, used at 10 ng/mL
ALK2 receptor phosphorylation (phospho-tyrosine) (ALK2): induced receptor phosphorylation | effect on EndMT (stimulation) [1]: stimulators of EndMT; also recorded: stimulate EndMT | FSP-1, α-SMA, and N-cadherin levels (immunoblotting) [1]: increased | VE-cadherin, CD31, and vWF levels (immunoblotting) [1]: decreased | EndMT-associated transcription factors Snail, Slug, ZEB-1, SIP-1, LEF-1, Twist (ELISA) [1]: much higher | FSP-1 and α-SMA levels (immunoblotting) [1]: increased | TIE-2 expression levels (immunoblotting) [1]: remained unchanged; also recorded: remain constant | VE-cadherin levels (immunoblotting) [1]: significantly decreased | co-staining for endothelial marker TIE2 and mesenchymal marker FSP-1 (fluorescence microscopy or flow cytometry) [1]: staining for both | expression of genes associated with EndMT (FSP-1, α-SMA, N-cadherin, fibronectin, Snail, Slug, ZEB-1, SIP-1, LEF-1, Twist), real-time quantitative PCR [1]: much higher | cell morphology (DIC imaging) [1]: distinct change from cobblestone-like endothelial cell morphology to fibroblast-like morphology | STRO-1 and other mesenchymal stem cell markers (immunoblotting) (HUVEC and HCMEC): strongly expressed | co-expression of TIE2 and mesenchymal stem cell marker STRO-1 (immunofluorescence microscopy or flow cytometry) (HUVEC and HCMEC): strong co-expression; also recorded: massive co-expression | expression of mesenchymal stem cell genes CD10, CD13, CD44, CD73, CD90, CD120a, CD124 (real-time quantitative PCR) (HUVEC and HCMEC): greatly increased
